Test results taken from patent publication US10717734B2, “Indole and azaindole haloallylamine derivative inhibitors of lysyl oxidases and uses thereof” (PHARMAXIS LTD., priority 2016, dated 2020).
Counter-ions that a name gives are not always drawn. One block for each molecule: values may come before it.

Legend:
Assay type in all cases: biochemical
Bovine LOX = Bovine LOX (Bos taurus (Bovine), UniProt P33072); assay: LOX inhibition, peroxidase-coupled Amplex Red amine oxidase assay; conditions: 30 min preincubation at 37° C., putrescine substrate
Sequence of Bovine LOX (P33072 170-418): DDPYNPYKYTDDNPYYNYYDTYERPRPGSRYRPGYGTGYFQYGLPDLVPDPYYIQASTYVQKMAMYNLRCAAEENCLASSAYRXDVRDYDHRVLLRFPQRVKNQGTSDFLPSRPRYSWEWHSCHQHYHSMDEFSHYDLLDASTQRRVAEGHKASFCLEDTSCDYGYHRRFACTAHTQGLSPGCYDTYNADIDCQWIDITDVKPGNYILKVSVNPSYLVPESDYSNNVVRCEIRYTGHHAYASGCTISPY
Excerpt: (§1) Method to Determine the Ability of Compounds of the Invention to Inhibit LOX and LOXL1-4 from Different Sources
Lysyl oxidase (LOX) is an extracellular copper dependent enzyme which oxidizes peptidyl lysine and hydroxylysine residues in collagen and lysine residues in elastin to produce peptidyl alpha-aminoadipic-delta-semialdehydes. […] There are five LOX family members; these are LOX, LOXL1, LOXL2, LOXL3 and LOXL4. LOX and LOXL family members can be acquired as recombinant active proteins from commercial sources, or extracted from animal tissues like bovine aorta, tendons, pig skin; or prepared from cell cultures. The inhibitory effects of the compounds of the present invention were tested against the given LOX-LOXL preparation using a high-throughput coupled colorimetric method (Holt A. and Palcic M., A peroxidase-coupled continuous absorbance plate-reader assay for flavin monoamine oxidases, copper-containing amine oxidases and related enzymes. Nat. Protoc. 2006; 1: 2498-2505). The assay was developed using either 384 or 96 well format. Briefly, in a standard 384 well plate assay 25 μL of a dilution of any of the isoenzymes and orthologues in 1.2 M urea, 50 mM sodium borate buffer (pH 8.2) were added into each well in the presence of 1 μM mofegiline and 0.5 mM pargyline (to inhibit SSAO and MAO-B and MAO-A, respectively). […] Twenty five μL of a reaction mixture containing twice the KM concentration of putrescine (Sigma Aldrich, e.g. 20 mM for LOX, or 10 mM for LOXL2 and LOXL3), 120 μM Amplex Red (Sigma Aldrich) and 1.5 U/mL horseradish peroxidase (Sigma Aldrich) prepared in 1.2 M urea, 50 mM sodium borate buffer (pH 8.2) were then added to the corresponding wells. The above volumes were doubled in the case of 96 wells plate. The fluorescence (RFU) was read every 2.5 min for 30 min at a range of temperatures from 37° to 45° C., excitation 565 nm and emission 590 (Optima; BMG labtech). The slope of the kinetics for each well was calculated using MARS data analysis software (BMG labtech) and this value was used to deduce the IC50 value (Dotmatics).

Human LOXL2 = Human LOXL2 (Homo sapiens (Human), UniProt Q9Y4K0); assay: LOXL2 inhibition, peroxidase-coupled Amplex Red amine oxidase assay; conditions: 30 min preincubation at 37° C., putrescine substrate
Sequence of Human LOXL2 (Q9Y4K0 26-774): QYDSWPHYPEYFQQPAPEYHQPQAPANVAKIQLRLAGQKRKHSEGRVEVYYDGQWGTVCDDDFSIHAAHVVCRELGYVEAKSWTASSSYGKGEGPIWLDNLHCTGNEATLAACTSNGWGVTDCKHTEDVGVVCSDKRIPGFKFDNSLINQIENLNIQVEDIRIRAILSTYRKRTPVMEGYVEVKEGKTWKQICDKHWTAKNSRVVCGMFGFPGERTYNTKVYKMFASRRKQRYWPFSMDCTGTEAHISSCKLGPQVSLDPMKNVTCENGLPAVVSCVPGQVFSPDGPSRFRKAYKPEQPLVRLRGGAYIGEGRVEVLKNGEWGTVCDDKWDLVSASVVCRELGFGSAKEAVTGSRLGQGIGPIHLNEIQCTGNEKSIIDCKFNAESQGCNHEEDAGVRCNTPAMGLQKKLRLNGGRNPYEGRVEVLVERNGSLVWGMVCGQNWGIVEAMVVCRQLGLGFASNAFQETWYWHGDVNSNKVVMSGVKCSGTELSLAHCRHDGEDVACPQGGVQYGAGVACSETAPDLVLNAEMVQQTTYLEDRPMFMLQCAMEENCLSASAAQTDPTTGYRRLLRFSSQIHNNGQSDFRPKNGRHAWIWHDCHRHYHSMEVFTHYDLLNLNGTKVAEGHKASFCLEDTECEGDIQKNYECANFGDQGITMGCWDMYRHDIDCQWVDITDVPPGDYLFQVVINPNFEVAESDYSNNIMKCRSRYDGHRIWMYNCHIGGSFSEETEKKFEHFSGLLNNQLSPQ
Excerpt: as §1
Lysyl oxidase (LOX) is an extracellular copper dependent enzyme which oxidizes peptidyl lysine and hydroxylysine residues in collagen and lysine residues in elastin to produce peptidyl alpha-aminoadipic-delta-semialdehydes. […] There are five LOX family members; these are LOX, LOXL1, LOXL2, LOXL3 and LOXL4. LOX and LOXL family members can be acquired as recombinant active proteins from commercial sources, or extracted from animal tissues like bovine aorta, tendons, pig skin; or prepared from cell cultures. The inhibitory effects of the compounds of the present invention were tested against the given LOX-LOXL preparation using a high-throughput coupled colorimetric method (Holt A. and Palcic M., A peroxidase-coupled continuous absorbance plate-reader assay for flavin monoamine oxidases, copper-containing amine oxidases and related enzymes. Nat. Protoc. 2006; 1: 2498-2505). The assay was developed using either 384 or 96 well format. Briefly, in a standard 384 well plate assay 25 μL of a dilution of any of the isoenzymes and orthologues in 1.2 M urea, 50 mM sodium borate buffer (pH 8.2) were added into each well in the presence of 1 μM mofegiline and 0.5 mM pargyline (to inhibit SSAO and MAO-B and MAO-A, respectively). Test compounds were dissolved in DMSO and tested in a Concentration Response Curve (CRC) with 11 data points, typically in the micromolar or nanomolar range after incubation with the enzyme for 30 min at 37° C. Twenty five μL of a reaction mixture containing twice the KM concentration of putrescine (Sigma Aldrich, e.g. 20 mM for LOX, or 10 mM for LOXL2 and LOXL3), 120 μM Amplex Red (Sigma Aldrich) and 1.5 U/mL horseradish peroxidase (Sigma Aldrich) prepared in 1.2 M urea, 50 mM sodium borate buffer (pH 8.2) were then added to the corresponding wells. The above volumes were doubled in the case of 96 wells plate. The fluorescence (RFU) was read every 2.5 min for 30 min at a range of temperatures from 37° to 45° C., excitation 565 nm and emission 590 (Optima; BMG labtech). The slope of the kinetics for each well was calculated using MARS data analysis software (BMG labtech) and this value was used to deduce the IC50 value (Dotmatics).

[1] = target: Human recombinant SSAO/VAP-1 (Homo sapiens (Human), UniProt Q16853); assay: Human recombinant SSAO/VAP-1 amine oxidase inhibition; conditions: 30 min preincubation at 37° C., 600 μM benzylamine
Sequence of Human recombinant SSAO/VAP-1 (Q16853 34-763): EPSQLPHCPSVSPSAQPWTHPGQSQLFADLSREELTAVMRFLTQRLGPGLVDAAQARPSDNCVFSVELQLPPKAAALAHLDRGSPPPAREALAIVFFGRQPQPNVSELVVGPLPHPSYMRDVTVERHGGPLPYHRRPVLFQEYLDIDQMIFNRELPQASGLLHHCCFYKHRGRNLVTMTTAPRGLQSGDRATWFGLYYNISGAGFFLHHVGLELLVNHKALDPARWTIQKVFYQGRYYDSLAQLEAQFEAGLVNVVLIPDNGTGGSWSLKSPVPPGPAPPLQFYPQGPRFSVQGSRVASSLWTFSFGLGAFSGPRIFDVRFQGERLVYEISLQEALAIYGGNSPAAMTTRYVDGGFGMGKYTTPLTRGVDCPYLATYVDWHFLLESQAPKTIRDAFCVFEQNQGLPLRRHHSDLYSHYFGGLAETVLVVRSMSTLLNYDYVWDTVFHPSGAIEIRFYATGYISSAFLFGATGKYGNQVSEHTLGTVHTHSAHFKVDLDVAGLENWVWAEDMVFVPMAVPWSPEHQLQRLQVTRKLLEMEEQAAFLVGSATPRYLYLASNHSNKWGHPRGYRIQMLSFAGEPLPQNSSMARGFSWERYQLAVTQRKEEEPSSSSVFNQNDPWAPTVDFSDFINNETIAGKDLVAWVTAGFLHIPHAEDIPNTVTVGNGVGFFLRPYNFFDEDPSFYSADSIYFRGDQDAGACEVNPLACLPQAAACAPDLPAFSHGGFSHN
Method: Method to Determine the Ability of Compounds of Formula I to Inhibit Human Recombinant SSAO/VAP-1
Human recombinant SSAO/VAP-1 amine oxidase activity was determined using the coupled colorimetric method as described for monoamine oxidase, copper-containing amine oxidases and related enzymes (Holt A. and Palcic M., A peroxidase-coupled continuous absorbance plate-reader assay for flavin monoamine oxidases, copper-containing amine oxidases and related enzymes. Nat Protoc 2006; 1: 2498-2505). Briefly, a cloned cDNA template corresponding to residues 34-763 of human SSAO/VAP-1, and incorporating a mouse Ig kappa (κ) signal sequence, N-terminal flag epitope tag and tobacco etch virus (TEV) cleavage site, was assembled in a mammalian expression vector (pLO-CMV) by Geneart AG. This vector containing human SSAO/VAP-1 residues was transfected into CHO-K1 glycosylation mutant cell line, Lec 8. A clone stably expressing human SSAO/VAP-1 was isolated and cultured in large scale. Active human SSAO/VAP-1 was purified and recovered using immunoaffinity chromatography. This was used as the source for SSAO/VAP-1 activity. A high-throughput colorimetric assay was developed using either 96 or 384 well format. Briefly, in a standard 96 well plate assay 50 μL of purified human SSAO/VAP-1 (0.25 μg/mL) in 0.1 M sodium phosphate buffer (pH 7.4) was added into each well. Test compounds were dissolved in DMSO and tested in a Concentration Response Curve (CRC) with 4-11 data points, typically in the micromolar or nanomolar range after incubation with human SSAO/VAP-1 for 30 min at 37° C. After 30 min incubation, 50 μL of the reaction mixture containing 600 μM benzylamine (Sigma Aldrich), 120 μM Amplex Red (Sigma Aldrich) and 1.5 U/mL horseradish peroxidase (Sigma Aldrich) prepared in 0.1 M sodium phosphate buffer (pH 7.4) were added to the corresponding well. The fluorescence unit (RFU) was read every 2.5 min for 30 min at 37° C. excitation 565 nm and emission 590 (Optima; BMG labtech). The slope of the kinetics for each well was calculated using MARS data analysis software (BMG labtech) and this value was used to deduce the IC50 value (Dotmatics).

Recombinant human MAO-B = Recombinant human MAO-B (Homo sapiens (Human), UniProt P27338); assay: Human recombinant MAO-B inhibition; conditions: benzylamine 100 μM
Sequence of Recombinant human MAO-B (P27338 whole entry): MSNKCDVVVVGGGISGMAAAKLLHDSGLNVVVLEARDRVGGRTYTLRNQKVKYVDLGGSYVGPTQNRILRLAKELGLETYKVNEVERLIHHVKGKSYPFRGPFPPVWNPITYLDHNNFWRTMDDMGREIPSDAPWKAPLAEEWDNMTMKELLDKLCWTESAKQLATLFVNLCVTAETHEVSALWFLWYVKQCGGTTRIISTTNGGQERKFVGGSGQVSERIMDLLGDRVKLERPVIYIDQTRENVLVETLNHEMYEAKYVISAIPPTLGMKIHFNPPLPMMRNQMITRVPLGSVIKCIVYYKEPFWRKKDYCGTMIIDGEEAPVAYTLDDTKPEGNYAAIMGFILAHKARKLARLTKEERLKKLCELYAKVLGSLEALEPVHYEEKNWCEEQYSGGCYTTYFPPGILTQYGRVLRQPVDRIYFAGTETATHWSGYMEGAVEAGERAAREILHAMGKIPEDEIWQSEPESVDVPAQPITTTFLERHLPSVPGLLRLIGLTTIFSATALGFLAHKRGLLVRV
Method: Method to Determine the Ability of Compounds of Formula I to Inhibit Human Recombinant MAO-B
The specificity of the compounds of this invention was tested by determining their ability to inhibit MAO-B activities in vitro. Recombinant human MAO-B (0.06 mg/mL; Sigma Aldrich) was used as source of MAO-B enzyme activities. The assay was performed in a similar way as for human SSAO/VAP-1 (Example 36) except, the substrate benzylamine was used at 100 μM.

Compound: Cc1ncc2c(n1)c(Cc1ccc(S(=O)(=O)N(C)C)cc1)c(C)n2C/C(F)=C/CN [Compound 39, (Z)-4-((5-(4-amino-2-fluorobut-2-en-1-yl)-2,6-dimethyl-5H-pyrrolo[3,2-d]pyrimidin-7-yl)methyl)-N,N-dimethylbenzenesulfonamide dihydrochloride]
IC50 (Bovine LOX): > 300 nM
IC50 (Human LOXL2): < 300 nM
IC50 [1]: > 3000 nM
IC50 (Recombinant human MAO-B): > 3000 nM

Compound: Cc1cc2c(nn1)c(Cc1ccc(S(=O)(=O)N(C)C)cc1)c(C)n2C/C(F)=C/CN [Compound 37, (Z)-4-((5-(4-amino-2-fluorobut-2-en-1-yl)-3,6-dimethyl-5H-pyrrolo[3,2-c]pyridazin-7-yl)methyl)-N,N-dimethylbenzenesulfonamide dihydrochloride]
IC50 (Bovine LOX): > 300 nM
IC50 (Human LOXL2): < 300 nM
IC50 [1]: > 3000 nM
IC50 (Recombinant human MAO-B): > 3000 nM

Compound: Cc1c(Cc2ccc(S(C)(=O)=O)nc2)c2nc(C(C)(F)F)ccc2n1C/C(F)=C/CN [Compound 30, (Z)-4-(5-(1,1-difluoroethyl)-2-methyl-3-((6-(methylsulfonyl)pyridin-3-yl)methyl)-1H-pyrrolo[3,2-b]pyridin-1-yl)-3-fluorobut-2-en-1-amine trihydrochloride]
IC50 (Bovine LOX): > 300 nM
IC50 (Human LOXL2): < 300 nM
IC50 [1]: > 3000 nM
IC50 (Recombinant human MAO-B): > 3000 nM

IC50 (Bovine LOX): > 300 nM
IC50 (Human LOXL2): < 300 nM
IC50 [1]: > 3000 nM
IC50 (Recombinant human MAO-B): > 3000 nM
Compound: Cc1c(Oc2ccc(S(=O)(=O)N(C)C)cc2)c2ccccc2n1C/C(F)=C/CN [Compound 21, (Z)-4-((1-(4-amino-2-fluorobut-2-en-1-yl)-2-methyl-1H-indol-3-yl)oxy)-N,N-dimethylbenzene-sulfonamide hydrochloride]

Compound: Cc1ccc2c(n1)c(Cc1cccc(S(C)(=O)=O)c1)c(C)n2C/C(F)=C/CN [Compound 17, (Z)-4-(2,5-dimethyl-3-(3-(methylsulfonyl)benzyl)-1H-pyrrolo[3,2-b]pyridin-1-yl)-3-fluorobut-2-en-1-amine dihydrochloride]
IC50 (Bovine LOX): > 300 nM
IC50 (Human LOXL2): < 300 nM
IC50 [1]: > 3000 nM
IC50 (Recombinant human MAO-B): > 3000 nM

Compound: CC(C)c1c(C(O)c2ccc(S(C)(=O)=O)nc2)c2ncccc2n1C/C(F)=C/CN (stereo not shown) [Compound 42, (Z)-(1-(4-amino-2-fluorobut-2-en-1-yl)-2-isopropyl-1H-pyrrolo[3,2-b]pyridin-3-yl)(6-(methylsulfonyl)pyridin-3-yl)methanol dihydrochloride]
IC50 (Bovine LOX): > 300 nM
IC50 (Human LOXL2): < 300 nM
IC50 [1]: > 3000 nM
IC50 (Recombinant human MAO-B): > 3000 nM

Compound: Cc1c(Cc2ccc(S(C)(=O)=O)cc2)c2ncccc2n1C/C(F)=C/CN [Compound 10, (Z)-3-fluoro-4-(2-methyl-3-(4-(methylsulfonyl)benzyl)-1H-pyrrolo[3,2-b]pyridin-1-yl)but-2-en-1-amine dihydrochloride]
IC50 (Bovine LOX): > 300 nM
IC50 (Human LOXL2): < 300 nM
IC50 [1]: > 3000 nM
IC50 (Recombinant human MAO-B): > 3000 nM

Compound: Cc1c(Cc2ccc(S(=O)(=O)N(C)C)cc2)c2cc(C(=O)O)ccc2n1C/C(F)=C/CN [Compound 1, (Z)-1-(4-amino-2-fluorobut-2-en-1-yl)-3-(4-(N,N-dimethylsulfamoyl)benzyl)-2-methyl-1H-indole-5-carboxylic acid hydrochloride]
IC50 (Bovine LOX): > 300 nM
IC50 (Human LOXL2): < 300 nM
IC50 [1]: > 3000 nM
IC50 (Recombinant human MAO-B): > 3000 nM

Compound: Cc1c(Cc2ccc(S(C)(=O)=O)cc2Cl)c2ncccc2n1C/C(F)=C/CN [Compound 20, (Z)-4-(3-(2-chloro-4-(methylsulfonyl)benzyl)-2-methyl-1H-pyrrolo[3,2-b]pyridin-1-yl)-3-fluorobut-2-en-1-amine dihydrochloride]
IC50 (Bovine LOX): > 300 nM
IC50 (Human LOXL2): < 300 nM
IC50 [1]: > 3000 nM
IC50 (Recombinant human MAO-B): > 3000 nM

Compound: Cc1ccc2c(n1)c(Cc1ccc(S(C)(=O)=O)cn1)c(C)n2C/C(F)=C/CN [Compound 14, (Z)-4-(2,5-dimethyl-3-((5-(methylsulfonyl)pyridin-2-yl)methyl)-1H-pyrrolo[3,2-b]pyridin-1-yl)-3-fluorobut-2-en-1-amine trihydrochloride]
IC50 (Bovine LOX): > 300 nM
IC50 (Human LOXL2): < 300 nM
IC50 [1]: > 3000 nM
IC50 (Recombinant human MAO-B): > 3000 nM

Compound: Cc1cc(S(C)(=O)=O)ccc1Cc1c(C)n(C/C(F)=C/CN)c2cccnc12 [Compound 34, (Z)-3-fluoro-4-(2-methyl-3-(2-methyl-4-(methylsulfonyl)benzyl)-1H-pyrrolo[3,2-b]pyridin-1-yl)but-2-en-1-amine dihydrochloride]
IC50 (Bovine LOX): > 300 nM
IC50 (Human LOXL2): < 300 nM
IC50 [1]: > 3000 nM
IC50 (Recombinant human MAO-B): > 3000 nM

Compound: Cc1c(Cc2ccc(S(=O)(=O)N(C)C)cc2)c2cc(S(=O)(=O)N(C)C)ccc2n1C/C(F)=C/CN [Compound 6, (Z)-1-(4-amino-2-fluorobut-2-en-1-yl)-3-(4-(N,N-dimethylsulfamoyl)benzyl)-N,N,2-trimethyl-1H-indole-5-sulfonamide hydrochloride]
IC50 (Bovine LOX): > 300 nM
IC50 (Human LOXL2): < 300 nM
IC50 [1]: > 3000 nM
IC50 (Recombinant human MAO-B): > 3000 nM

Compound: Cc1ccc2c(n1)c(Cc1ccc(S(=O)(=O)N(C)C)cc1)c(C)n2C/C(F)=C/CN [Compound 9, (Z)-4-((1-(4-amino-2-fluorobut-2-en-1-yl)-2,5-dimethyl-1H-pyrrolo[3,2-b]pyridin-3-yl)methyl)-N,N-dimethylbenzenesulfonamide dihydrochloride]
IC50 (Bovine LOX): > 300 nM
IC50 (Human LOXL2): < 300 nM
IC50 [1]: > 3000 nM
IC50 (Recombinant human MAO-B): > 3000 nM
